In this assay the test system is CD2F1 mice, L1210 leukemia ip, survival T/C. As to the kind of experiment: NCI In Vivo Anticancer Drug Screen. Data for tumor model L1210 Leukemia (intraperitoneal) in CD2F1 (CDF1) mice. The settings on record: higher = longer survival. An outline of the steps:
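Activity against a transplanted murine tumor was judged by comparing the compound group with a vehicle group. The outcome in the treated animals was divided by that in the controls.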

Where [1] appears, read: endpoint: mean survival time, dose: 100.0 mg/kg/injection, schedule: Q04DX003 (ip), vehicle: saline with Tween-80.
The mark [2] stands for this setting: endpoint: mean survival time, dose: 200.0 mg/kg/injection, schedule: Q04DX003 (ip), vehicle: saline with Tween-80.
Where [3] appears, read: endpoint: mean survival time, dose: 400.0 mg/kg/injection, schedule: Q04DX003 (ip), vehicle: saline with Tween-80.
Where [4] appears, read: endpoint: mean survival time, dose: 50.0 mg/kg/injection, schedule: Q04DX003 (ip), vehicle: saline.
[5] abbreviates: endpoint: mean survival time, dose: 100.0 mg/kg/injection, schedule: Q04DX003 (ip), vehicle: saline.
Where [6] appears, read: endpoint: mean survival time, dose: 200.0 mg/kg/injection, schedule: Q04DX003 (ip), vehicle: saline.
[7] abbreviates: endpoint: mean survival time, dose: 50.0 mg/kg/injection, schedule: Q01DX009 (ip), vehicle: saline with Tween-80.
The mark [8] stands for this setting: endpoint: mean survival time, dose: 50.0 mg/kg/injection, schedule: Q04DX003 (ip), vehicle: saline with Tween-80.

We go through 21 compounds from PubChem BioAssay AID256 (DTP/NCI, 2004).

Molecules are shown by their SMILES. Values joined by “and” are separate entries in the source; they are usually repeats but may differ in a detail not shown here. Equal entries are not always repeated. Inconclusive results and toxic doses are left out.

For `CCCCOC(=O)c1cc([N+](=O)[O-])c(Sc2ncnc3nc[nH]c23)c([N+](=O)[O-])c1`, the T/C (endpoint: mean survival time, dose: 0.63 mg/kg/injection, schedule: Q01DX005 (ip), vehicle: other) is 106 % of control; the T/C (endpoint: mean survival time, dose: 1.25 mg/kg/injection, schedule: Q01DX005 (ip), vehicle: other) was 104 % of control; the T/C (endpoint: mean survival time, dose: 2.5 mg/kg/injection, schedule: Q01DX005 (ip), vehicle: other) was 106 % of control; the T/C (endpoint: mean survival time, dose: 5.0 mg/kg/injection, schedule: Q01DX005 (ip), vehicle: other) was 106 % of control; the T/C (endpoint: mean survival time, dose: 10.0 mg/kg/injection, schedule: Q01DX005 (ip), vehicle: other) is 114 % of control; the T/C (endpoint: mean survival time, dose: 15.0 mg/kg/injection, schedule: Q01DX005 (ip), vehicle: other) was 120 % of control.
Regarding `O=C(O)COC(C[N+](=O)[O-])C(Cl)(Cl)Cl` (centres undefined), the T/C by setting is: under setting [1], 93 % of control; under setting [2], 104 % of control; under setting [3], 98 % of control.
`COC(CO)(OC)c1ccccc1`: the T/C is 102 % of control under setting [1], 106 % of control under setting [2] and 93 % of control under setting [3].
As to `O=C(CCOP(=O)(NCCCl)NCCCl)c1ccccc1`, the T/C runs as follows: (endpoint: median survival time, dose: 62.5 mg/kg/injection, schedule: Q01DX001 (ip), vehicle: saline with Tween-80) 117 % of control; (endpoint: median survival time, dose: 125.0 mg/kg/injection, schedule: Q01DX001 (ip), vehicle: saline with Tween-80) 166 % of control; (endpoint: median survival time, dose: 250.0 mg/kg/injection, schedule: Q01DX001 (ip), vehicle: saline with Tween-80) 165 % of control and 229 % of control; (endpoint: median survival time, dose: 500.0 mg/kg/injection, schedule: Q01DX001 (ip), vehicle: saline with Tween-80) 291 % of control.
As for `Nc1cn2ncnc2c(=O)[nH]1`, the T/C (endpoint: median survival time, dose: 50.0 mg/kg/injection, schedule: Q01DX005 (ip), vehicle: saline) is 106 % of control; the T/C (endpoint: median survival time, dose: 100.0 mg/kg/injection, schedule: Q01DX005 (ip), vehicle: saline) is 106 % of control; the T/C (endpoint: median survival time, dose: 200.0 mg/kg/injection, schedule: Q01DX005 (ip), vehicle: saline) was 113 % of control.
Regarding `Nc1ncnc2c1nc(N1CCCCC1)n2C1OC(CO)C(O)C1O` (centres undefined), the T/C was 92 % of control and 98 % of control (endpoint: mean survival time, dose: 12.5 mg/kg/injection, schedule: Q01DX005 (ip), vehicle: distilled water + Tween-80); 103 % of control and 97 % of control (endpoint: mean survival time, dose: 25.0 mg/kg/injection, schedule: Q01DX005 (ip), vehicle: distilled water + Tween-80); 99 % of control and 98 % of control (endpoint: mean survival time, dose: 50.0 mg/kg/injection, schedule: Q01DX005 (ip), vehicle: distilled water + Tween-80); 101 % of control and 100 % of control (endpoint: mean survival time, dose: 100.0 mg/kg/injection, schedule: Q01DX005 (ip), vehicle: distilled water + Tween-80); 97 % of control and 100 % of control (endpoint: mean survival time, dose: 200.0 mg/kg/injection, schedule: Q01DX005 (ip), vehicle: distilled water + Tween-80).
Consider `c1ccc2c(c1)c1ccccc1c1nc3c(nc21)CCCC3`, for which the T/C is, setting by setting: under setting [1], 102 % of control; under setting [2], 96 % of control; under setting [3], 96 % of control.
As for `O=C(O)CCC(=O)Nc1ccccc1C(=O)O`, the T/C (endpoint: mean survival time, dose: 100.0 mg/kg/injection, schedule: Q01DX009 (ip), vehicle: saline with Tween-80) is 102 % of control; the T/C (endpoint: mean survival time, dose: 200.0 mg/kg/injection, schedule: Q01DX009 (ip), vehicle: saline with Tween-80) is 93 % of control; the T/C (endpoint: mean survival time, dose: 400.0 mg/kg/injection, schedule: Q01DX009 (ip), vehicle: saline with Tween-80) is 96 % of control.
Consider `CCN(CC)CCCC(C)Nc1ncnc(N)c1[N+](=O)[O-]` (centres undefined), for which the T/C by setting is: (endpoint: mean survival time, dose: 25.0 mg/kg/injection, schedule: Q01DX009 (ip), vehicle: saline) 103 % of control; (endpoint: mean survival time, dose: 25.0 mg/kg/injection, schedule: Q04DX003 (ip), vehicle: saline) 106 % of control; (endpoint: mean survival time, dose: 50.0 mg/kg/injection, schedule: Q01DX009 (ip), vehicle: saline) 92 % of control; under setting [4], 111 % of control; (endpoint: mean survival time, dose: 100.0 mg/kg/injection, schedule: Q01DX009 (ip), vehicle: saline) 95 % of control; under setting [5], 104 % of control.
In the case of `CN(Cc1cnc2nc(N)nc(N)c2n1)c1ccc(C(=O)NC(CCC(=O)O)C(=O)O)cc1Br` (centres undefined), the T/C (endpoint: mean survival time, dose: 6.25 mg/kg/injection, schedule: Q01DX Z (ip), vehicle: saline) was 104 % of control.
In the case of `Cc1cccc(Br)[n+]1[O-]`, the T/C is 92 % of control under setting [5] and 101 % of control under setting [6].
Take `NNC(=O)c1cc(Cl)cc(C(=O)NN)n1`: the T/C under setting [7] is 97 % of control.
`CC(=O)CC(C)=O.CC(=O)CC(C)=O.O.O.[Co]`: the T/C reads like this: (endpoint: mean survival time, dose: 22.0 mg/kg/injection, schedule: Q04DX003 (ip), vehicle: saline with Tween-80) 111 % of control; (endpoint: mean survival time, dose: 22.0 mg/kg/injection, schedule: Q04DX003 (ip), vehicle: saline) 97 % of control; (endpoint: mean survival time, dose: 33.0 mg/kg/injection, schedule: Q04DX003 (ip), vehicle: saline with Tween-80) 114 % of control; (endpoint: mean survival time, dose: 33.0 mg/kg/injection, schedule: Q04DX003 (ip), vehicle: saline) 102 % of control; under setting [8], 109 % of control; under setting [4], 108 % of control.
Turning to `CC1=C(C(N)=O)C(c2ccccc2)NC(=S)N1` (centres undefined), the T/C is 101 % of control (endpoint: median survival time, dose: 25.0 mg/kg/injection, schedule: Q01DX009 (ip), vehicle: Klucel (hydroxypropylcellulose) (HPC)); 105 % of control (endpoint: median survival time, dose: 50.0 mg/kg/injection, schedule: Q01DX009 (ip), vehicle: Klucel (hydroxypropylcellulose) (HPC)); 102 % of control (endpoint: median survival time, dose: 100.0 mg/kg/injection, schedule: Q01DX009 (ip), vehicle: Klucel (hydroxypropylcellulose) (HPC)); 112 % of control (endpoint: median survival time, dose: 200.0 mg/kg/injection, schedule: Q01DX009 (ip), vehicle: Klucel (hydroxypropylcellulose) (HPC)); 103 % of control (endpoint: median survival time, dose: 400.0 mg/kg/injection, schedule: Q01DX009 (ip), vehicle: Klucel (hydroxypropylcellulose) (HPC)).
Take `COc1cc2c(cc1OC)C(c1cc(OC)c(OC)c(OC)c1)=NCC2`: the T/C was 104 % of control (endpoint: mean survival time, dose: 100.0 mg/kg/injection, schedule: Q04DX002 (ip), vehicle: saline with Tween-80); 104 % of control (endpoint: mean survival time, dose: 200.0 mg/kg/injection, schedule: Q04DX002 (ip), vehicle: saline with Tween-80); 87 % of control under setting [2]; 100 % of control (endpoint: mean survival time, dose: 400.0 mg/kg/injection, schedule: Q04DX002 (ip), vehicle: saline with Tween-80); 87 % of control under setting [3].
On to `Brc1ccc([I+]c2ccc(Br)cc2)cc1`, for which the T/C by setting is: (endpoint: mean survival time, dose: 12.5 mg/kg/injection, schedule: Q04DX003 (ip), vehicle: saline with Tween-80) 105 % of control; (endpoint: mean survival time, dose: 25.0 mg/kg/injection, schedule: Q04DX003 (ip), vehicle: saline with Tween-80) 95 % of control; under setting [8], 101 % of control; under setting [3], 94 % of control.
With `COc1cc(Cl)ccc1NC(=O)OCCOc1ccc(Br)cc1`, the T/C by setting is: (endpoint: mean survival time, dose: 12.5 mg/kg/injection, schedule: Q01DX009 (ip), vehicle: saline with Tween-80) 91 % of control; (endpoint: mean survival time, dose: 25.0 mg/kg/injection, schedule: Q01DX009 (ip), vehicle: saline with Tween-80) 87 % of control; under setting [7], 119 % of control and 91 % of control.
In the case of `O=P(O)(O)CCc1ccccc1`, the T/C under setting [4] was 95 % of control, the T/C under setting [5] is 90 % of control and the T/C under setting [6] is 96 % of control.
Regarding `O=C1NN=C2CCCCC12` (centres undefined), the T/C is, setting by setting: (endpoint: mean survival time, dose: 100.0 mg/kg/injection, schedule: Q01DX009 (ip), vehicle: Klucel (hydroxypropylcellulose) (HPC)) 97 % of control; (endpoint: mean survival time, dose: 200.0 mg/kg/injection, schedule: Q01DX009 (ip), vehicle: Klucel (hydroxypropylcellulose) (HPC)) 96 % of control; (endpoint: mean survival time, dose: 400.0 mg/kg/injection, schedule: Q01DX009 (ip), vehicle: Klucel (hydroxypropylcellulose) (HPC)) 102 % of control.
With `c1ccc2c(c1)[nH]c1c2c[n+]2c3c(cccc13)CCC2`, the T/C runs as follows: (endpoint: mean survival time, dose: 6.25 mg/kg/injection, schedule: Q01DX001 (ip), vehicle: saline) 101 % of control; (endpoint: mean survival time, dose: 12.5 mg/kg/injection, schedule: Q01DX001 (ip), vehicle: saline) 107 % of control.
With `ClCCn1c(CCl)nc2ccc(Cl)cc21`, the T/C is 109 % of control (endpoint: mean survival time, dose: 2.5 mg/kg/injection, schedule: Q01DX009 (ip), vehicle: Klucel (hydroxypropylcellulose) (HPC)); 101 % of control (endpoint: mean survival time, dose: 5.0 mg/kg/injection, schedule: Q01DX009 (ip), vehicle: Klucel (hydroxypropylcellulose) (HPC)); 95 % of control and 102 % of control (endpoint: mean survival time, dose: 10.0 mg/kg/injection, schedule: Q01DX009 (ip), vehicle: Klucel (hydroxypropylcellulose) (HPC)).
